Data reported in ChEMBL document CHEMBL1146886, “Antibacterial activity of pyrrolopyridine-substituted oxazolidinones: synthesis and in vitro SAR of various C-5 acetamide replacements” (2006).
≈ marks a conversion by molar mass, not a printed value.

What was measured:
Assay type in all cases: functional
Enterococcus faecium = experiment: Antibacterial activity against gram positive vancomycin-resistant Enterococcus faecium OC 3312
Enterococcus faecalis = experiment: Antibacterial activity against gram positive vancomycin-susceptible Enterococcus faecalis ATCC 29212
Staphylococcus aureus [1] = experiment: Antibacterial activity against gram positive methicillin-resistant Staphylococcus aureus OC 2878
Staphylococcus aureus [2] = experiment: Antibacterial activity against gram positive methicillin-susceptible Staphylococcus aureus Smith OC 4172 by broth microdilution assay
Staphylococcus aureus [3] = experiment: Antibacterial activity against gram positive Staphylococcus aureus Smith OC 4172 in presence of 50% mouse serum

Compound	MIC (Enterococcus faecium)	MIC (Enterococcus faecalis)	MIC (Staphylococcus aureus [1])	MIC (Staphylococcus aureus [2])	MIC (Staphylococcus aureus [3])
C/C(=N\C#N)NC[C@H]1CN(c2ccc(N3Cc4cccnc4C3)c(F)c2)C(=O)O1	4 µg/mL (≈ 10.1 µM)	4 µg/mL (≈ 10.1 µM)	2 µg/mL (≈ 5.07 µM)	2 µg/mL (≈ 5.07 µM)	8 µg/mL
CC(=O)NC[C@H]1CN(c2ccc(-n3cc4cccnc4c3)c(F)c2)C(=O)O1	1 µg/mL (≈ 2.71 µM)	1 µg/mL (≈ 2.71 µM)	0.5 µg/mL (≈ 1.36 µM)	1 µg/mL (≈ 2.71 µM)	2 µg/mL
O=C(CO)NC[C@H]1CN(c2ccc(N3Cc4cccnc4C3)c(F)c2)C(=O)O1	16 µg/mL (≈ 41.4 µM)	32 µg/mL (≈ 82.8 µM)	16 µg/mL (≈ 41.4 µM)	32 µg/mL (≈ 82.8 µM)	32 µg/mL
CS(=O)(=O)NC[C@H]1CN(c2ccc(N3Cc4cccnc4C3)c(F)c2)C(=O)O1	4 µg/mL (≈ 9.84 µM)	8 µg/mL (≈ 19.7 µM)	2 µg/mL (≈ 4.92 µM)	4 µg/mL (≈ 9.84 µM)	16 µg/mL
Cc1cccc(OC[C@H]2CN(c3ccc(N4Cc5cccnc5C4)c(F)c3)C(=O)O2)n1	> 64 µg/mL	> 32 µg/mL	> 128 µg/mL	> 128 µg/mL	> 128 µg/mL
O=C(NC[C@H]1CN(c2ccc(N3Cc4cccnc4C3)c(F)c2)C(=O)O1)C1CC1	2 µg/mL (≈ 5.05 µM)	2 µg/mL (≈ 5.05 µM)	2 µg/mL (≈ 5.05 µM)	2 µg/mL (≈ 5.05 µM)	4 µg/mL
CC(=O)NC[C@H]1CN(c2ccc(N3Cc4cccnc4C3)c(F)c2)C(=O)O1	0.5 µg/mL (≈ 1.35 µM)	0.5 µg/mL (≈ 1.35 µM)	0.25 µg/mL (≈ 0.675 µM)	0.5 µg/mL (≈ 1.35 µM)	1 µg/mL
CCC(=O)NC[C@H]1CN(c2ccc(-n3cc4cccnc4c3)c(F)c2)C(=O)O1	16 µg/mL (≈ 41.8 µM)	16 µg/mL (≈ 41.8 µM)	16 µg/mL (≈ 41.8 µM)	32 µg/mL (≈ 83.7 µM)	32 µg/mL
CC(=O)OCC(=O)NC[C@H]1CN(c2ccc(N3Cc4cccnc4C3)c(F)c2)C(=O)O1	16 µg/mL (≈ 37.3 µM)	16 µg/mL (≈ 37.3 µM)	128 µg/mL (≈ 299 µM)	32 µg/mL (≈ 74.7 µM)	32 µg/mL
CS/C(=N\C#N)NC[C@H]1CN(c2ccc(N3Cc4cccnc4C3)c(F)c2)C(=O)O1	2 µg/mL (≈ 4.69 µM)	4 µg/mL (≈ 9.38 µM)	2 µg/mL (≈ 4.69 µM)	2 µg/mL (≈ 4.69 µM)	8 µg/mL
O=C(NC[C@H]1CN(c2ccc(N3Cc4cccnc4C3)c(F)c2)C(=O)O1)C1CCC1	8 µg/mL (≈ 19.5 µM)	8 µg/mL (≈ 19.5 µM)	4 µg/mL (≈ 9.75 µM)	8 µg/mL (≈ 19.5 µM)	32 µg/mL
O=C1O[C@@H](COc2cnccn2)CN1c1ccc(-n2cc3cccnc3c2)c(F)c1	64 µg/mL (≈ 158 µM)	64 µg/mL (≈ 158 µM)	8 µg/mL (≈ 19.7 µM)	> 32 µg/mL	> 32 µg/mL
CC(=O)NC[C@H]1CN(c2ccc(N3CCOCC3)c(F)c2)C(=O)O1 [LINEZOLID]	2 µg/mL (≈ 5.93 µM)		1 µg/mL (≈ 2.96 µM)		
COC(=O)NC[C@H]1CN(c2ccc(N3Cc4cccnc4C3)c(F)c2)C(=O)O1	2 µg/mL (≈ 5.18 µM)	4 µg/mL (≈ 10.4 µM)	2 µg/mL (≈ 5.18 µM)	4 µg/mL (≈ 10.4 µM)	16 µg/mL
Cc1cccc(OC[C@H]2CN(c3ccc(-n4cc5cccnc5c4)c(F)c3)C(=O)O2)n1	> 128 µg/mL	> 64 µg/mL	> 64 µg/mL	> 128 µg/mL	> 128 µg/mL
O=C1O[C@@H](Cn2ccccc2=O)CN1c1ccc(-n2cc3cccnc3c2)c(F)c1	> 128 µg/mL	> 128 µg/mL	> 128 µg/mL	> 128 µg/mL	> 128 µg/mL
CS/C(=N/C#N)NC[C@H]1CN(c2ccc(-n3cc4cccnc4c3)c(F)c2)C(=O)O1	8 µg/mL (≈ 18.8 µM)	8 µg/mL (≈ 18.8 µM)	8 µg/mL (≈ 18.8 µM)	8 µg/mL (≈ 18.8 µM)	64 µg/mL

Compound	MIC (Enterococcus faecium)	MIC (Enterococcus faecalis)	MIC (Staphylococcus aureus [1])	MIC (Staphylococcus aureus [2])	MIC (Staphylococcus aureus [3])
O=C1O[C@@H](COc2ccon2)CN1c1ccc(N2Cc3cccnc3C2)c(F)c1	16 µg/mL (≈ 40.4 µM)	> 32 µg/mL	8 µg/mL (≈ 20.2 µM)	> 32 µg/mL	> 64 µg/mL
O=C1O[C@@H](COc2ccccn2)CN1c1ccc(N2Cc3cccnc3C2)c(F)c1	> 64 µg/mL	> 64 µg/mL	32 µg/mL (≈ 78.7 µM)	> 128 µg/mL	> 128 µg/mL
N#Cc1ccc(OC[C@H]2CN(c3ccc(-n4cc5cccnc5c4)c(F)c3)C(=O)O2)nc1	> 64 µg/mL	> 32 µg/mL	> 64 µg/mL	> 128 µg/mL	> 128 µg/mL
O=C1O[C@@H](Cn2ccccc2=O)CN1c1ccc(N2Cc3cccnc3C2)c(F)c1	> 32 µg/mL	> 32 µg/mL	16 µg/mL (≈ 39.4 µM)	> 32 µg/mL	64 µg/mL
O=C1O[C@@H](C/N=C/NN[N+](=O)[O-])CN1c1ccc(N2Cc3cccnc3C2)c(F)c1	8 µg/mL (≈ 19.3 µM)	16 µg/mL (≈ 38.5 µM)	8 µg/mL (≈ 19.3 µM)	8 µg/mL (≈ 19.3 µM)	16 µg/mL
N#Cc1ccc(OC[C@H]2CN(c3ccc(N4Cc5cccnc5C4)c(F)c3)C(=O)O2)nc1	> 64 µg/mL	> 16 µg/mL	> 64 µg/mL	> 64 µg/mL	> 64 µg/mL
CCC(=O)NC[C@H]1CN(c2ccc(N3Cc4cccnc4C3)c(F)c2)C(=O)O1	2 µg/mL (≈ 5.2 µM)	2 µg/mL (≈ 5.2 µM)	1 µg/mL (≈ 2.6 µM)	2 µg/mL (≈ 5.2 µM)	4 µg/mL
O=C1O[C@@H](COc2cnsn2)CN1c1ccc(-n2cc3cccnc3c2)c(F)c1	4 µg/mL (≈ 9.72 µM)	4 µg/mL (≈ 9.72 µM)	2 µg/mL (≈ 4.86 µM)	8 µg/mL (≈ 19.4 µM)	16 µg/mL
CCOC(=O)NC[C@H]1CN(c2ccc(N3Cc4cccnc4C3)c(F)c2)C(=O)O1	8 µg/mL (≈ 20 µM)	8 µg/mL (≈ 20 µM)	4 µg/mL (≈ 9.99 µM)	8 µg/mL (≈ 20 µM)	64 µg/mL
O=C1O[C@@H](C/N=C/NN[N+](=O)[O-])CN1c1ccc(-n2cc3cccnc3c2)c(F)c1	32 µg/mL (≈ 77.4 µM)	32 µg/mL (≈ 77.4 µM)	> 128 µg/mL	64 µg/mL (≈ 155 µM)	128 µg/mL
O=C1O[C@@H](COc2cnccn2)CN1c1ccc(N2Cc3cccnc3C2)c(F)c1	> 32 µg/mL	> 32 µg/mL	> 32 µg/mL	> 32 µg/mL	> 32 µg/mL
CS(=O)(=O)NC[C@H]1CN(c2ccc(-n3cc4cccnc4c3)c(F)c2)C(=O)O1	> 64 µg/mL	> 64 µg/mL	> 64 µg/mL	> 64 µg/mL	> 64 µg/mL
O=C1O[C@@H](COc2cnsn2)CN1c1ccc(N2Cc3cccnc3C2)c(F)c1	2 µg/mL (≈ 4.84 µM)	8 µg/mL (≈ 19.4 µM)	1 µg/mL (≈ 2.42 µM)	2 µg/mL (≈ 4.84 µM)	8 µg/mL
O=C(NC[C@H]1CN(c2ccc(-n3cc4cccnc4c3)c(F)c2)C(=O)O1)C1CC1	8 µg/mL (≈ 20.3 µM)	16 µg/mL (≈ 40.6 µM)	8 µg/mL (≈ 20.3 µM)	8 µg/mL (≈ 20.3 µM)	16 µg/mL
O=C1O[C@@H](COc2ccon2)CN1c1ccc(-n2cc3cccnc3c2)c(F)c1	8 µg/mL (≈ 20.3 µM)	16 µg/mL (≈ 40.6 µM)	4 µg/mL (≈ 10.1 µM)	8 µg/mL (≈ 20.3 µM)	64 µg/mL
COC(=O)NC[C@H]1CN(c2ccc(-n3cc4cccnc4c3)c(F)c2)C(=O)O1	16 µg/mL (≈ 41.6 µM)	16 µg/mL (≈ 41.6 µM)	16 µg/mL (≈ 41.6 µM)	16 µg/mL (≈ 41.6 µM)	32 µg/mL
